Laboratory results taken from article PMC5007552, “The hVps34‐SGK3 pathway alleviates sustained PI3K/Akt inhibition by stimulating mTORC1 and tumour growth” (The EMBO Journal, 2016).

Target: T1, SGK3[S486E] (Homo sapiens, UniProt Q96BR1, S486E)
T1 construct: host or cells: HEK293
T1 sequence (Q96BR1 1-496 S486E): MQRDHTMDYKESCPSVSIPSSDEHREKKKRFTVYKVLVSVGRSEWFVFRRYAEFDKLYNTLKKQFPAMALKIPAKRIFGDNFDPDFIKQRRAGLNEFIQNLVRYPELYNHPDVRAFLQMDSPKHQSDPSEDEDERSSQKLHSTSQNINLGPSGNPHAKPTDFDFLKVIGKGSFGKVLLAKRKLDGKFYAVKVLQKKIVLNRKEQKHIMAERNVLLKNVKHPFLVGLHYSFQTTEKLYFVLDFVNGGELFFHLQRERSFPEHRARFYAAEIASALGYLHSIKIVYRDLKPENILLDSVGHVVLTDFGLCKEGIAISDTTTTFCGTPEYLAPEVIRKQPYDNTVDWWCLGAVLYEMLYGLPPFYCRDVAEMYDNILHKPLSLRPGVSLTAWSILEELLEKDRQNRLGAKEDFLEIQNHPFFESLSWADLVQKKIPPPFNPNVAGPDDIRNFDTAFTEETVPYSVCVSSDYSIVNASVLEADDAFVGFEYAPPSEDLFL
Test: SGK3 kinase assay on phospholipid vesicles: phosphorylation of SGK3[S486E] at Thr320 by PDK1 with PtdIns(3)P
Type: biochemical
Details: in the presence of PtdIns(3)P
Method: Figure 4 PtdIns(3)P binding to PX domain of SGK3 promotes phosphorylation and activation by PDK1 • A, B SGK3 [S486E]‐GST and SGK3 [R90A S486]‐GST were purified from HEK293 cells transiently overexpressing these enzymes. […] SGK3[S486E]‐GST (A) or the non‐PtdIns(3)P‐binding mutant SGK3[R90A, S486E]‐GST (B) was incubated with lipid vesicles comprising phosphatidylcholine (PC) and phosphatidylserine (PS) containing the indicted concentrations of PtdIns or PtdIns(3)P in the presence or absence of added recombinant PDK1 (50 ng) and kinase reactions were initiated by addition of MgATP. After 30 min at 30°C, PDK1 was inhibited by addition of the 1 μM GSK2334470 PDK1 inhibitor and the reaction mixture was supplemented with 2 μg GST‐NDRG1 SGK3 substrate. After another 30 min at 30°C, the reaction was terminated by addition of SDS sample buffer. The reaction mixtures were subjected to immunoblot analysis with the indicated antibodies.
The result for each kinase is presented as a mean kinase activity of the reaction taken in triplicate relative to a control reaction where the inhibitors were omitted. […] SGK3 was immunoprecipitated from cell lysates and subjected to in vitro kinase assay by measuring phosphorylation of the Crosstide substrate peptide in the presence of 0.1 mM [γ‐^32P]ATP in a 30 min 30°C reaction (upper panel). Kinase reactions are presented as means ± SD for triplicate reaction. […]

Compound: Nc1n[nH]c2nc(-c3ccc(NS(=O)(=O)c4cc(Cl)ccc4Cl)cc3)cnc12 [14h]
- concentration of near maximal inhibition of PDK1 phosphorylating SGK3[S486E] at Thr320: 0.1 µM
